Several values for one entry are separate records, joined by “and”; a condition that tells them apart may be missing. Identical values can stand only once. Activity calls are given as the source filed them. How the calls were made is not given here.
Test: non-covalent RecA intein splicing inhibitors, dose response, biochemical, cell-free, fluorescence, secondary screen (AID 449750)

SMILES	AC50
Cc1cc(C)c(C#N)c(SCc2[nH]nc3c2C(c2ccc(F)cc2)C(C#N)=C(N)O3)n1 (stereo not given)	29.2 µM
O=C1C(Cl)=C(N2CCCCC2)C(=O)N1c1ccccc1Cl	> 38 µM (inactive)
O=C(Oc1ccc2ccccc2c1)c1ccco1	> 38 µM (inactive)
CCc1ccc(NC(=O)C(=O)N/N=C(\C)CC(=O)Nc2ccccn2)cc1	> 38 µM (inactive)
O=S(=O)(Nc1ccc(O)c2ccccc12)c1ccc(OC(F)(F)F)cc1	0.779 µM
CC1(C)CC(C(CCN(Cc2ccccc2)C(=O)c2ccco2)c2ccc(F)cc2)CCO1 (stereo not given)	5.14 µM
CNC1=C(N(C(C)=O)c2ccc(Br)cc2)C(=O)c2ccccc2C1=O	2.43 µM
CCOC(=O)c1cc2cc3ccccc3cc2[nH]1	> 38 µM (inactive)
N#CC1=C(N)Oc2n[nH]c(-c3ccc(F)cc3)c2C1c1cccc(OC(=O)N2CCOCC2)c1 (stereo not given)	26.2 µM
O=S(=O)(Cc1ccccc1)c1cnc2ccccc2n1	> 38 µM (inactive)
O=C(NC1CCCCC1)C(c1cccnc1)N(C(=O)CCl)c1cccc(Cl)c1 (stereo not given)	3 µM
COc1ccc(N/C=C2\CCc3ccccc3C2=O)cc1	> 38 µM (inactive)
CS(=O)(=O)c1nc(-c2ccco2)cc(C(F)(F)F)n1	> 38 µM (inactive)
N#Cc1nccnc1S(=O)(=O)c1cccs1	> 38 µM (inactive)
NC1=C(Br)C(=O)c2ccccc2C1=O	13.1 µM
O=C1C(Cc2ccccc2)Nc2ncnc(N3CCc4ccccc4C3)c2N1Cc1ccc(Cl)cc1 (stereo not given)	> 38 µM (inactive)
O=C(CCl)Nc1cccc(CP(=O)(c2ccccc2)c2ccccc2)c1	17.8 µM
CC(C)(C)OC(=O)N/N=C\c1ccc(OC(=O)c2ccco2)cc1	> 38 µM (inactive)
O=c1[nH]c(O)c(N=Nc2cc([N+](=O)[O-])ccc2O)c(=O)[nH]1	2.29 µM
CN(CCC#N)C(=O)Cn1nc(Cc2ccncc2)c2ccccc2c1=O	> 38 µM (inactive)
CC(=O)c1ccc(-c2cccc(-c3nc4ccccn4c3NC3CCCCC3)c2)cc1	6.79 µM
COc1ccc(N(C(=O)CCl)C(C(=O)NC2CCCCC2)c2cccnc2)cc1 (stereo not given)	3.87 µM
CC(C)NC(=S)NC1(C)CCS(=O)(=O)C1 (stereo not given)	> 38 µM (inactive)
O=C(CCl)Nc1cn(-c2ccccc2)nc1-c1ccc(F)cc1	2.82 µM
N=C1/C(=C\c2ccc(OC(=O)c3ccc(F)cc3)cc2)C(=O)N=C2SC(N3CCOCC3)=NN12	> 38 µM (inactive)

SMILES	AC50
COc1cccc(CN2CCN(Cc3ccc(C#CC(C)(C)O)s3)CC2CCO)c1 (stereo not given)	> 38 µM (inactive)
Cc1ccsc1C=Nc1ccc(O)cc1	> 38 µM (inactive)
O=[N+]([O-])c1ccc(N2CCOCC2)c2ccncc12	> 38 µM (inactive)
COc1cc(Br)c(C(=O)c2nccc3cc(OC)c(OC)cc23)cc1OC	6.24 µM
CCCc1nnc(NC(=O)c2nc(S(=O)(=O)Cc3cccc(C)c3)ncc2Cl)s1	> 38 µM (inactive)
CCc1ccccc1N1C(=O)C(Cl)=C(N2CCOCC2)C1=O	> 38 µM (inactive)
CSc1nc(=S)n(-c2ccc([N+](=O)[O-])cc2)c(C)c1C(C)=O	> 38 µM (inactive)
C#CCOc1ccc(OC)cc1C(c1c(C)[nH][nH]c1=O)c1c(C)[nH][nH]c1=O	17.3 µM
O=S(=O)(c1ccccc1)c1ncc(C(F)(F)F)cc1Cl	> 38 µM (inactive)
COC(=O)COc1ccc(C(c2c(C)[nH][nH]c2=O)c2c(C)[nH][nH]c2=O)cc1	13 µM
O=C(NC(NC(=S)Nc1ccc(Cl)cc1Cl)C(Cl)(Cl)Cl)c1cccc([N+](=O)[O-])c1 (stereo not given)	2.62 µM
COc1c(O)ccc2c1CN1CCc3cc4c(cc3C1C2)OCO4 (stereo not given)	> 38 µM (inactive)
OC(COC(c1ccc(Cl)cc1)c1ccc(Cl)cc1)CN1CCc2ccccc2C1 (stereo not given)	3.84 µM
CCCCCCCCOC(=O)c1c(CSC(=N)N)n(C)c2cc(Br)c(OC(C)=O)cc12	14.5 µM
CCC(C)[C@@H](NC(=O)OC(C)(C)C)c1nnc(S(=O)(=O)Cc2cccc(C)c2)o1 (stereo not given in full)	> 38 µM (inactive)
CCC1C(=O)N(c2nc(C)cc(C)n2)N=C1C (stereo not given)	> 38 µM (inactive)
O=C1CCN(S(=O)(=O)c2ccccc2)N1	> 38 µM (inactive)
CCN(CC)c1ccc(/C=C2\C(=O)N(c3nnc(C)c(=O)[nH]3)N=C2C)cc1	5.67 µM
COc1ccc(/C=C2/C(=O)N(c3ccccc3)N=C2C)cc1	5.27 µM
COc1ccccc1-c1cn[nH]c(=S)n1	> 38 µM (inactive)
c1ccc(-c2ccc(C3CCCN3)cc2)cc1 (stereo not given)	> 38 µM (inactive)
Cc1onc(-c2c(Cl)cccc2Cl)c1C(=O)N1C(C)CCCC1C (stereo not given)	> 38 µM (inactive)
Cc1[nH][nH]c(=O)c1C(c1cc(Br)ccc1O)c1c(C)[nH][nH]c1=O	8.35 µM
O=C(CCl)N(c1ccccc1)c1ccccc1	5.75 µM
Cc1ccc(Sc2c(C)[nH]n(C(C)(C)C)c2=O)cc1	> 38 µM (inactive)

SMILES	AC50
O=C(Nc1ccccc1)c1nnsc1S(=O)c1ccc(Cl)cc1 (stereo not given)	> 38 µM (inactive)
CC1=NN(c2ccccc2)C(=O)/C1=C\c1ccc(Oc2ccc([N+](=O)[O-])cc2[N+](=O)[O-])cc1	3.48 µM
CC(=O)n1cc(N(C(=O)CCl)c2ccc(Cl)cc2)c2ccccc21	2.08 µM
O=[N+]([O-])c1cc(-c2ccc(C(=S)N3CCOCC3)o2)ccc1Cl	18.4 µM
O=C(c1ccc(Cl)cc1)n1cnc2ccccc21	> 38 µM (inactive)
COc1ccc(-c2[nH]nc3c2C(c2ccccc2OC(=O)N2CCOCC2)C(C#N)=C(N)O3)cc1 (stereo not given)	38.2 µM
CCOc1cc(C(c2c(C)[nH][nH]c2=O)c2c(C)[nH][nH]c2=O)ccc1OS(=O)(=O)c1ccc(C)cc1	4.78 µM
CCN1CCN(c2c(Cl)cccc2NC(=O)c2ccc3c(c2)OCCO3)CC1	> 38 µM (inactive)
O=C(Cc1cc(=O)[nH][nH]1)N/N=C/c1c(Cl)cccc1Cl	16 µM and 23.9 µM
O=C(Nc1ccc(N2CCOCC2)cc1)Nc1ccc2nsnc2c1	> 38 µM (inactive)
CCCCn1c(NC(=O)c2ccco2)c(S(=O)(=O)c2ccc(C)cc2)c2nc3ccccc3nc21	> 38 µM (inactive)
COc1ccc(Nc2ccc3c(c2)=NC2(CCCCC2)[N+]=3[O-])cc1	15 µM
COc1ccccc1CN1CCSCC1	> 38 µM (inactive)
Clc1ccc2nnnc(-c3ccccc3)c2c1	9.57 µM
CC1=CC2(O)OCCN(CCO)C2=CC1=O (stereo not given)	13.5 µM
COc1cc(/C=C2\C(=O)N(c3ccc(NC(C)=O)cc3)N=C2c2ccccc2)ccc1O	> 38 µM (inactive)
Cc1ccc(-c2[nH]nc3c2C(c2ccc(OC(=O)N4CCOCC4)cc2)C(C#N)=C(N)O3)cc1 (stereo not given)	21.1 µM
CCc1ccc(C2C(C#N)=C(N)C(C#N)(C#N)C3=CCC(C(C)(C)C)CC32)cc1 (stereo not given)	> 38 µM (inactive)
COC(=O)c1sc(-c2ccc(Cl)cc2)cc1NC(=O)/C=C/C(=O)O	9.69 µM
Cc1ccc(CS(=O)(=O)c2ncc(Cl)c(C(=O)Nc3nnc(C)s3)n2)cc1	> 38 µM (inactive)
CCOC(=O)C1(CCOc2ccccc2)CCN(Cc2ccc(O)c(Cl)c2)CC1	> 38 µM (inactive)
O=C(CCl)Nc1ccccc1C(=O)Nc1ccc2c(c1)OCO2	10.5 µM
Cc1[nH]nc2c1C1(CCN(C(=O)OCc3ccccc3)CC1)C(C#N)=C(N)O2	> 38 µM (inactive)
O=C1C(Cl)=C(N2CCOCC2)C(=O)N1c1ccccc1Cl	> 38 µM (inactive)
Cc1cc(OC(=O)c2ccccc2)n(CCC#N)n1	17.7 µM

Source: PubChem BioAssay AID449750 (Broad Institute, 2010)
